Laboratory results from patent US10532987B2, “Compounds and methods for inducing browning of white adipose tissue” (GUANGZHOU INSTITUTES OF BIOMEDICINE AND HEALTH, CHINESE …, priority 2015, dated 2020).

Test system: Ucp1
Experiment: UCP1 luciferase assay (Ucp1 up-regulation in differentiated inguinal adipocytes of Ucp1-luciferase knock-in mice)
Format: cell-based
Settings: Mus musculus, Adipocyte, 48 h, 2 days treatment, luciferase activity, read-out: Ucp1 activation fold/corresponding concentration
Protocol: TEST EXAMPLE 1 UCP1 Luciferase Assay
Evaluating Compounds that Induce Ucp1 Up-Regulation
Ucp1-luciferase knock-in mice will be housed in cages and fed on standard chow diets (the detailed procedures please see reference 14). The 8-week-old mice will be killed by the cervical dislocation and put into 75% alcohol for 5 minutes. The inguinal adipose tissue will be dissected out and transferred to the three 10-cm petri dishes and washed with PBS for three times. The adipose tissue will be dissected and minced on a 10-cm petri dish for several minutes and then pipetted into 20 ml 0.1% collagenase solution in 50 ml conical tubes and digested at 37° C. for 1 hour. Next, 20 ml culture medium will be added to terminate the digestion and centrifuged for 10 minutes at 1000 rpm respectively. The supernatants will be removed and the pellets re-suspended in 10 mL culture medium and plated into 10-cm plates. The cells will be left to adhere to the plates overnight and the culture medium will be changed every other day. The confluent cells will be trypsinized, counted and plated to 24-well plate (5×10^4 cells/well). The cells will be washed and re-fed the next day (as day −2). Two days later (day 0), the cells will usually become confluent and be induced to differentiate with MDIR medium. On day 2, the medium will be changed to IR medium and re-fed every 2 days. Complete differentiation is usually achieved by day 10. On day 10, the medium will be changed to the culture medium of 10% FBS/DMEM with indicated drugs along with the positive and negative controls for 2 days. The media will be removed and the cells washed with 1 ml PBS per well three times. Then 100 μl lysis buffer will be used to lyse the cells at 4° C. for 1 hour. 30 μl culture medium, 30 μl cell lysates and 60 μl Steady-Glo® Reagent were added to a well of 96-well-plate and the luminescence will be measured using a luminometer. The protein concentration will be determined using 20 μl cell lysates and specific activity of luciferase will be tabulated and data analyzed.

Compound | fold induction at 3 µM | fold induction at 1 µM | further results
CC(=O)N1CCC(c2ccc(-c3csc(Nc4ccccn4)n3)cc2)CC1 [Compound 61, 1-(4-(4-(2-(pyridin-2-ylamino)thiazol-4-yl)phenyl)piperidin-1-yl)ethanone] | 3.2 |  | 
CC(C)Oc1ccc(-c2csc(Nc3ccccn3)n2)cc1 [Compound 42, 4-(4-isopropoxyphenyl)-N-(pyridin-2-yl)thiazol-2-amine] |  | 2 | 
COc1ccc(-c2csc(NC(=O)[C@@H]3CCCN3)n2)cc1OC [Compound 70, (S)—N-(4-(3,4-dimethoxyphenyl)thiazol-2-yl)pyrrolidine-2-carboxamide] |  |  | fold induction at 0.3 µM: 1.7
CCNC(=O)COc1ccc(-c2csc(Nc3ccccn3)n2)cc1 [Compound 47, N-ethyl-2-(4-(2-(pyridin-2-ylamino)thiazol-4-yl)phenoxy)acetamide] | 2.4 |  | 
C#Cc1ccc(-c2csc(Nc3ccccn3)n2)cc1 [Compound 78, 4-(4-ethynylphenyl)-N-(pyridin-2-yl)thiazol-2-amine] |  | 2.3 | 
CCOC(=O)[C@@H]1CCCN1C(=O)c1ccc(-c2csc(Nc3ccccn3)n2)cc1 [Compound 67, (S)-ethyl 1-(4-(2-(pyridin-2-ylamino)thiazol-4-yl)benzoyl)pyrrolidine-2-carboxylate] | 3.1 |  | 
Brc1ccc(-c2csc(Nc3ccccn3)n2)cc1 [Compound 40, 4-(4-bromophenyl)-N-(pyridin-2-yl)thiazol-2-amine] | 3 |  | 
CS(=O)(=O)c1ccc(-c2csc(Nc3ccccn3)n2)cc1 [Compound 51, 4-(4-(methylsulfonyl)phenyl)-N-(pyridin-2-yl)thiazol-2-amine] |  | 3.9 | 
O=C(Nc1ccncc1)c1ccc(-c2csc(Nc3ccccn3)n2)cc1 [Compound 65, 4-(2-(pyridin-2-ylamino)thiazol-4-yl)-N-(pyridin-4-yl)benzamide] | 1.1 |  | 
c1ccc(Nc2nc(-c3ccc(-c4nn[nH]n4)cc3)cs2)nc1 [Compound 77, 4-(4-(2H-tetrazol-5-yl)phenyl)-N-(pyridin-2-yl)thiazol-2-amine] | 1.1 |  | 
Clc1cccc(-c2csc(Nc3ccccn3)n2)c1Cl [Compound 75, 4-(2,3-dichlorophenyl)-N-(pyridin-2-yl)thiazol-2-amine] | 1.1 |  | 
CCCC(=O)Nc1ccc(-c2csc(Nc3ccccn3)n2)cc1 [Compound 39, N-(4-(2-(pyridin-2-ylamino)thiazol-4-yl)phenyl)butyramide] |  | 3.4 | 
c1ccc(Nc2nc(-c3ccc(-c4ccncc4)cc3)cs2)nc1 [Compound 79, N-(pyridin-2-yl)-4-(4-(pyridin-4-yl)phenyl)thiazol-2-amine] | 1.8 |  | 
Oc1ccc(-c2csc(Nc3ccccn3)n2)cc1 [Compound 41, 4-(2-(pyridin-2-ylamino)thiazol-4-yl)phenol] |  | 3.3 | 
COc1ccc(-c2csc(Nc3cccnc3)n2)cc1OC [Compound 33, 4-(3,4-dimethoxyphenyl)-N-(pyridin-3-yl)thiazol-2-amine] | 2 |  | 
Clc1ccc(-c2csc(Nc3ccccn3)n2)cc1 [Compound 63, 4-(4-chlorophenyl)-N-(pyridin-2-yl)thiazol-2-amine] | 5.9 |  | 
c1ccc(Nc2nc(-c3ccccn3)cs2)nc1 [Compound 27, N,4-di(pyridin-2-yl)thiazol-2-amine] |  | 3.3 | 
COc1ccc(-c2csc(Nc3cc4ccccc4cn3)n2)cc1OC [Compound 6, 4-(3,4-dimethoxyphenyl)-N-(isoquinolin-3-yl)thiazol-2-amine] |  | 1.2 | 
COc1cccc(-c2csc(Nc3ccccn3)n2)c1 [Compound 3, 4-(3-methoxyphenyl)-N-(pyridin-2-yl)thiazol-2-amine] |  | 2.8 | 
c1ccc(Nc2nc(-c3ccc(-c4ccsc4)cc3)cs2)nc1 [Compound 76, N-(pyridin-2-yl)-4-(4-(thiophen-3-yl)phenyl)thiazol-2-amine] | 1.8 |  | 
COc1ccc(-c2csc(Nc3ccccn3)n2)c(OC)c1 [Compound 15, 4-(2,4-dimethoxyphenyl)-N-(pyridin-2-yl)thiazol-2-amine] |  |  | fold induction at 0.3 µM: 1.4
c1ccc(CNc2ccc(-c3csc(Nc4ccccn4)n3)cc2)cc1 [Compound 55, 4-(4-(benzylamino)phenyl)-N-(pyridin-2-yl)thiazol-2-amine] | 2 |  | 

Compound | fold induction at 3 µM | fold induction at 1 µM | further results
COc1ccc(-c2csc(Nc3cccc(C)n3)n2)cc1OC [Compound 10, 4-(3,4-dimethoxyphenyl)-N-(6-methylpyridin-2-yl)thiazol-2-amine] | 3.8 |  | 
c1ccc(Nc2nc(-c3ccc(CN4CCOCC4)cc3)cs2)nc1 [Compound 54, 4-(4-(morpholinomethyl)phenyl)-N-(pyridin-2-yl)thiazol-2-amine] |  | 3.9 | 
Cc1ccc(-c2csc(Nc3ccccn3)n2)cc1 [Compound 21, N-(pyridin-2-yl)-4-p-tolylthiazol-2-amine] | 2.9 |  | 
COc1ccc(-c2csc(Nc3nc4ccc(C)cc4s3)n2)cc1OC [Compound 14, N-(4-(3,4-dimethoxyphenyl)thiazol-2-yl)-6-methylbenzo[d]thiazol-2-amine] | 2.4 |  | 
CCN(CC)C(=O)c1ccc(-c2csc(Nc3ccccn3)n2)cc1 [Compound 66, N,N-diethyl-4-(2-(pyridin-2-ylamino)thiazol-4-yl)benzamide] | 1 |  | 
CC(C)NC(=O)c1ccc(-c2csc(Nc3ccccn3)n2)cc1 [Compound 57, N-isopropyl-4-(2-(pyridin-2-ylamino)thiazol-4-yl)benzamide] | 3.5 |  | 
O=C(NO)c1ccc(-c2csc(Nc3ccccn3)n2)cc1 [Compound 74, N-hydroxy-4-(2-(pyridin-2-ylamino)thiazol-4-yl)benzamide] | 3 |  | 
COc1ccc(-c2csc(Nc3ncccc3C)n2)cc1OC [Compound 12, 4-(3,4-dimethoxyphenyl)-N-(3-methylpyridin-2-yl)thiazol-2-amine] |  | 1.2 | 
COc1cc(-c2csc(Nc3ccccn3)n2)cc(OC)c1OC [Compound 17, N-(pyridin-2-yl)-4-(3,4,5-trimethoxyphenyl)thiazol-2-amine] |  | 1.9 | 
O=C(Nc1cccnc1)c1ccc(-c2csc(Nc3ccccn3)n2)cc1 [Compound 64, 4-(2-(pyridin-2-ylamino)thiazol-4-yl)-N-(pyridin-3-yl)benzamide] |  | 1.1 | 
CCC(=O)Nc1ccc(-c2csc(Nc3ccccn3)n2)cc1 [Compound 38, N-(4-(2-(pyridin-2-ylamino)thiazol-4-yl)phenyl)propionamide] | 5 |  | 
COc1ccc(-c2csc(NC(=O)c3ccccc3)n2)cc1OC [Compound 30, N-(4-(3,4-dimethoxyphenyl)thiazol-2-yl)benzamide] |  | 1.1 | 
CCOC(=O)COc1ccc(-c2csc(Nc3ccccn3)n2)cc1 [Compound 44, ethyl 2-(4-(2-(pyridin-2-ylamino)thiazol-4-yl)phenoxy)acetate] | 1.9 |  | 
CN(C)c1ccc(-c2csc(Nc3ccccn3)n2)cc1 [Compound 16, 4-(4-(dimethylamino)phenyl)-N-(pyridin-2-yl)thiazol-2-amine] | 5.1 |  | 
COc1ccccc1-c1csc(Nc2ccccn2)n1 [Compound 24, 4-(2-methoxyphenyl)-N-(pyridin-2-yl)thiazol-2-amine] | 2.7 |  | 
CNc1nc(-c2ccc(OC)c(OC)c2)cs1 [Compound 31, 4-(3,4-dimethoxyphenyl)-N-methylthiazol-2-amine] |  | 1.1 | 
O=C(Nc1ccc(Cl)cc1)c1csc(Nc2ccccn2)n1 [Compound 68, N-(4-chlorophenyl)-2-(pyridin-2-ylamino)thiazole-4-carboxamide] | 1.3 |  | 
Fc1ccc(-c2csc(Nc3ccccn3)n2)cc1 [Compound 22, 4-(4-fluorophenyl)-N-(pyridin-2-yl)thiazol-2-amine] |  | 3.9 | 
CN1CCN(C(=O)c2ccc(-c3csc(Nc4ccccn4)n3)cc2)CC1 [Compound 59, (4-methylpiperazin-1-yl)(4-(2-(pyridin-2-ylamino)thiazol-4-yl)phenyl)methanone] |  | 4 | 
O=C(O)COc1ccc(-c2csc(Nc3ccccn3)n2)cc1 [Compound 45, 2-(4-(2-(pyridin-2-ylamino)thiazol-4-yl)phenoxy)acetic acid] |  |  | fold induction at 0.3 µM: 1.3
N#Cc1ccc(-c2csc(Nc3ccccn3)n2)cc1 [Compound 49, 4-(2-(pyridin-2-ylamino)thiazol-4-yl)benzonitrile] |  | 3.9 | 
CC(=O)Nc1ccc(-c2csc(Nc3ccccn3)n2)cc1 [Compound 36, N-(4-(2-(pyridin-2-ylamino)thiazol-4-yl)phenyl)acetamide] |  | 3.8 | 
